Reference: US11571011B2, “Compositions of steviol multiglycosylated derivatives and stevia components” (SWEET GREEN FIELDS USA LLC, priority 2015, dated 2023)
Values joined by “and” are separate entries in the source; they are usually repeats but may differ in a detail not shown here. Equal values may be shown once.

Experiments:
[1] = Calculated versus measured sweetness of GSG / steviol glycoside compositions from sweetness curves (synergistic effect); design: species or system human; settings: for Calculated SE of RA97: citric acid pH 3.8
Method: The sweetness of GSG-RA50 and RA97 compositions at varying concentrations was measured according to the sweetness curve (FIG. 9), and the combined sweetness of each composition of GSG-RA50 and RA97 was calculated and compared with the measured value in Table 19.
Calculated SE (ppm sucrose) of GSG-RA50 per ppm=calculated SE of GSG-RA50/concentration of GSG-RA50. Measured sweetness (ppm sucrose) of GSG-RA50 per ppm=(Measured SE−Calculated SE of RA97)/concentration of GSG-RA50.
The sweetness of GSG-RA95 and rebaudioside A, 97% purity (RA) RA97 compositions at varying concentrations was measured according to the sweetness curve (FIG. 13), and the combined sweetness of each composition of GSG-RA95 and RA97 was calculated and compared with the measured value in Table 23.
Calculated sweetness (ppm sugar) of GSG-RA50 per ppm=calculated SE of GSG-RA50/concentration of GSG-RA50. Measured sweetness (ppm sugar) of GSG-RA50 per ppm=(Measured SE-calculated SE of RA97)/concentration of GSG-RA50.
Calculated sweetness (ppm sugar) of GSG-RA20 plus RA97 per ppm=calculated SE of GSG-RA20 plus RA97/concentration of GSG-RA20 plus RA97
Measured sweetness (ppm sugar) of GSG-RA20 plus RA97 per ppm=(Measured SE of GSG-RA20 plus RA97−sugar concentration)/concentration of GSG-RA20 plus RA97

[2] = Evaluation of taste profile: sugar like, bitterness, aftertaste, lingering scored 0-5 by sensory panel; assay type: in vivo, human
Method: 1. The components where mixed and then dissolved in aqueous citric acid (pH 3.8) with ultrasound at room temperature and left to sit for 30 min.
For evaluation of taste profile, the samples were tested and were scored 0-5 according to the increasing sugar like, bitterness, aftertaste and lingering taste profiles. The results were recorded as the mean value of the results provided by the panel.

[3] = Solubility of spray-dried GSG-RA20 / steviol glycoside 1:1 compositions (Example 56); assay type: physicochemical
Method: GSG-RA20 was mixed with RA, RB, RD or stevioside as the ratio of 1:1 by weight so as to obtain a mixture, a certain amount of solvent, such as water, ethanol/water mixture, was added into the obtained mixture, heated to a certain temperature until the mixture was completely dissolved, and the temperature was kept for an hour. The solution was treated by spray drying to obtain the composition comprising GSG and SG.

[4] = background; cited from earlier work
[5] = RA97 400 ppm (control), citric acid pH 3.8
[6] = total solid content 350 ppm, panel score
[7] = 0.01 g of each component in 10 ml water

Which “Calc. SE of RA97” value ([1]; RA97 50 ppm, read from sweetness curve) does the source give for `C=C1C[C@@]23CC[C@H]4[C@@](C)(CCC[C@@]4(C)C(=O)O[C@@H]4O[C@H](CO)[C@@H](O)[C@H](O)[C@H]4O)[C@@H]2CC[C@]1(O[C@@H]1O[C@H](CO)[C@@H](O)[C@H](O[C@@H]2O[C@H](CO)[C@@H](O)[C@H](O)[C@H]2O)[C@H]1O[C@@H]1O[C@H](CO)[C@@H](O)[C@H](O)[C@H]1O)C3` [RA97, Rebaudioside A] here?
The value was 1.5%.

What about the “Calc. SE of RA97” value ([1]; RA97 50 ppm, with GSG-RA90, 350 ppm total solids) of the same compound?
The value was 1.5%.

And the “Calc. SE of RA97” value ([1]; RA97 100 ppm, read from sweetness curve)?
The value was 3% and 3.2%.

What about the “Calculated SE of RA97” value ([1]; RA97 100 ppm) of the same compound?
The value was 3%.

And the “Calc. SE of RA97” value ([1]; RA97 100 ppm, with GSG-RA90, 350 ppm total solids)?
Its value is 3.2%.

What about the “Calc. SE of RA97” value ([1]; RA97 100 ppm, with GSG-RA95, 200 ppm total solids) of the same compound?
Its value is 3%.

What about the “Calc. SE of RA97” value ([1]; RA97 150 ppm, read from sweetness curve) of the same compound?
The value was 4.2% and 4%.

And the “Calculated SE of RA97” value ([1]; RA97 150 ppm)?
The value was 4.20%.

And the “Calc. SE of RA97” value ([1]; RA97 150 ppm, with GSG-RA90, 350 ppm total solids)?
Its value is 4%.

What about the “Calc. SE of RA97” value ([1]; RA97 150 ppm, with GSG-RA95, 200 ppm total solids) of the same compound?
The value was 4.2%.

What about the “Calc. SE of RA97” value ([1]; RA97 200 ppm, read from sweetness curve) of the same compound?
The value was 5%.

What about the “Calculated SE of RA97” value ([1]; RA97 200 ppm) of the same compound?
Its value is 5%.

And the “Calc. SE of RA97” value ([1]; RA97 200 ppm, with GSG-RA90, 350 ppm total solids)?
Its value is 5%.

And the “Calc. SE of RA97” value ([1]; RA97 250 ppm, read from sweetness curve)?
Its value is 6%.

And the “Calculated SE of RA97” value ([1]; RA97 250 ppm)?
Its value is 6%.

What about the “Calc. SE of RA97” value ([1]; RA97 250 ppm, with GSG-RA90, 350 ppm total solids) of the same compound?
Its value is 6%.

What about the “Calc. SE of RA97” value ([1]; RA97 300 ppm, read from sweetness curve) of the same compound?
Its value is 6.9% and 7%.

What about the “Calculated SE of RA97” value ([1]; RA97 300 ppm) of the same compound?
The value was 6.90%.

And the “Calc. SE of RA97” value ([1]; RA97 300 ppm, with GSG-RA90, 350 ppm total solids)?
Its value is 6.9%.

What about the “Calc. SE of RA97” value ([1]; RA97 300 ppm, with GSG-RA95, 500 ppm total solids) of the same compound?
Its value is 7%.

And the “Calc. SE of RA97” value ([1]; RA97 400 ppm, read from sweetness curve)?
The value was 8.25%.

What about the “Calc. SE of RA97” value ([1]; RA97 400 ppm, with GSG-RA95, 500 ppm total solids) of the same compound?
Its value is 8.25%.

And the “Measured SE of the composition” value ([1]; RA97 alone, 350 ppm, no GSG)?
Its value is 8%.

And the “Calculated SE of the single component (steviol glycoside composition or GSG) alone” value (from here on “Calculated SE of the single component”) ([1]; component at 150 ppm)?
The value was 4.00%.

What about the “Calculated SE of the single component” value ([1]; component at 200 ppm) of the same compound?
Its value is 5.00%.

What about the “Calculated SE of the single component” value ([1]; component at 250 ppm) of the same compound?
Its value is 6.00%.

What about the Aftertaste [2, 5] of the same compound?
Its Aftertaste is 3.

And the Bitterness [2, 5]?
Its Bitterness is 2.

What about the Lingering [2, 5] of the same compound?
The Lingering was 4.

What about the Sugar like [2, 5] of the same compound?
Its Sugar like is 3.

And the Aftertaste [2, 6]?
The Aftertaste was 3.

And the Bitterness [2, 6]?
The Bitterness was 2.

And the Lingering [2, 6]?
Its Lingering is 4.

What about the Sugar like [2, 6] of the same compound?
Its Sugar like is 3.

For `C=C1C[C@@]23CC[C@H]4[C@@](C)(CCC[C@@]4(C)C(=O)O[C@@H]4O[C@H](CO)[C@@H](O)[C@H](O)[C@H]4O)[C@@H]2CC[C@]1(O[C@@H]1O[C@H](CO)[C@@H](O)[C@H](O[C@@H]2O[C@H](CO)[C@@H](O)[C@H](O)[C@H]2O)[C@H]1O[C@@H]1O[C@H](CO)[C@@H](O)[C@H](O)[C@H]1O)C3` [Rebaudioside A], which Stable time ([3]; 1 g in 10 ml water) is on record?
The Stable time was 2 h.

With `C=C1C[C@@]23CC[C@H]4[C@@](C)(CCC[C@@]4(C)C(=O)O[C@@H]4O[C@H](CO)[C@@H](O)[C@H](O)[C@H]4O[C@@H]4O[C@H](CO)[C@@H](O)[C@H](O)[C@H]4O)[C@@H]2CC[C@]1(O[C@@H]1O[C@H](CO)[C@@H](O)[C@H](O[C@@H]2O[C@H](CO)[C@@H](O)[C@H](O)[C@H]2O)[C@H]1O[C@@H]1O[C@H](CO)[C@@H](O)[C@H](O)[C@H]1O)C3` [Rebaudioside D] as the compound, how does the Stable time [3, 7] read?
The Stable time was “insoluble”.

Which “times sweeter than sugar” value [4] does the source give for `C=C1C[C@@]23CC[C@H]4[C@@](C)(CCC[C@@]4(C)C(=O)O[C@@H]4O[C@H](CO)[C@@H](O)[C@H](O)[C@H]4O)[C@@H]2CC[C@]1(O[C@@H]1O[C@H](CO)[C@@H](O)[C@H](O)[C@H]1O[C@@H]1O[C@H](CO)[C@@H](O)[C@H](O)[C@H]1O)C3` [Stevioside] here?
The value was “approximately 300 times”.

For Rebaudioside B, which Stable time [3, 7] is on record?
The Stable time was “insoluble”.
